System: BT-474 cells
Assay: Antiproliferative assay
Assay type: cell-based
Details: Homo sapiens, BT-474, 72 h, read-out: Antiproliferative activity IC50, BT-474; SD

- IC50: 25 ± 4 nM
Compound: CS(=O)(=O)CCNCc1ccc(-c2ccc3ncnc(Nc4ccc(OCc5cccc(F)c5)c(Cl)c4)c3c2)o1 [lapatinib]
